Results from patent US11591341B2 (ALIGOS THERAPEUTICS, INC., priority 2019, dated 2023).

System: HBV
Test: HBV-DNA Antiviral Assay Using HepG2.117 Cells (intracellular HBV DNA by qPCR)
Type: cell-based, hepatitis B virus (genotype D)
Conditions: Hepatitis B virus, HepG2.117
Outline: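 HepG2.117 cells (genotype D HBV, Tet-off) were induced by doxycycline withdrawal and treated for 3 days with 9 concentrations in 4-fold dilution, 2% DMSO final. Intracellular HBV DNA was measured by qPCR against a standard curve, with ATPlite viability read in parallel. EC50, EC90 and CC50 came from fits against the DMSO control.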

O=C(NCc1ccccc1-c1ncccn1)c1c2n(c(=O)n1-c1ccc(-n3cccn3)cc1)CCN(C(=O)c1ccc(Br)c(Cl)c1)C2 [Example 429, 7-(4-bromo-3-chloro-benzoyl)-3-oxo-2-(4-pyrazol-1-ylphenyl)-N-[(2-pyrimidin-2-ylphenyl)methyl]-6,8-dihydro-5H-imidazo[1,5-a]pyrazine-1-carboxamide]
EC50: < 0.1 µM

O=C(NCc1ccccc1)c1c2n(c(=O)n1-c1ccc(-c3ncc[nH]3)cc1)CCN(C(=O)c1ccc(Br)c(Cl)c1)C2 [Example 430, N-benzyl-7-(4-bromo-3-chloro-benozyl)-2-[4-(1H-imidazol-2-yl)phenyl]-3-oxo-6,8-dihydro-5H-imidazo[1,5-a]pyrazine-1-carboxamide]
EC50: 0.5 to 5 µM

O=C1COc2ccc(CNC(=O)c3c4n(c(=O)n3-c3ccc(OC5CC5)cc3)CCN(C(=O)c3ccc(Br)c(Cl)c3)C4)cc2N1 [Example 431, 7-(4-bromo-3-chloro-benzoyl)-2-[4-(cyclopropoxy)phenyl]-3-oxo-N-[(3-oxo-4H-1,4-benzoxazin-6-yl)methyl]-6,8-dihydro-5H-imidazo[1,5-a]pyrazine-1-carboxamide]
EC50: 0.5 to 5 µM

N#Cc1cc(C(=O)N2CCn3c(c(C(=O)NCc4ccccc4-c4ncccn4)n(-c4ccc(OC5CC5)cc4)c3=O)C2)ccc1Br [Example 432, 7-(4-bromo-3-cyano-benzoyl)-2-[4-(cyclopropoxy)phenyl]-3-oxo-N-[(2-pyrimidin-2-ylphenyl)methyl]-6,8-dihydro-5H-imidazo[1,5-a]pyrazine-1-carboxamide]
EC50: 0.1 to 0.5 µM

N#Cc1cc(C(=O)N2CCn3c(c(C(=O)NCc4ccccc4-c4ncco4)n(-c4ccc(OC5CC5)cc4)c3=O)C2)ccc1Br [Example 433, 7-(4-bromo-3-cyano-benzoyl)-2-[4-(cyclopropxy)phenyl]-N-[(2-oxazol-2-ylphenyl)methyl]-3-oxo-6,8-dihydro-5H-imidazo[1,5-a]pyrazine-1-carboxamide]
EC50: 0.1 to 0.5 µM

O=C(NCc1ccccc1-c1nnco1)c1c2n(c(=O)n1-c1ccc(OC3CC3)cc1)CCN(C(=O)c1ccc(Br)c(Cl)c1)C2 [Example 434, 7-(4-bromo-3-chloro-benzoyl)-2-[4-(cyclopropoxy)phenyl]-N-[[2-(1,3,4-oxadiazol-2-yl)phenyl]methyl]-3-oxo-6,8-dihydro-5H-imidazo[1,5-a]pyrazine-1-carboxamide]
EC50: < 0.1 µM

O=C(NCc1c(F)cccc1-n1cccn1)c1c2n(c(=O)n1-c1ccc(OC3CC3)cc1)CCN(C(=O)c1ccc(Br)c(Cl)c1)C2 [Example 435, 7-(4-bromo-3-chloro-benzoyl)-2-[4-(cyclopropoxy)phenyl]-N-[(2-fluoro-6-pyrazol-1-yl-phenyl)methyl]-3-oxo-6,8-dihydro-5H-imidazo[1,5-a]pyrazine-1-carboxamide]
EC50: < 0.1 µM

COc1ccc([C@H](C)NC(=O)c2c3n(c(=O)n2-c2ccc(-n4cccn4)cc2)CCN(C(=O)c2ccc(Br)c(Cl)c2)C3)cc1 [Example 442, 7-(4-bromo-3-chloro-benzoyl)-N-[(1S)-1-(4-methoxyphenyl)ethyl]-3-oxo-2-(4-pyrazol-1-ylphenyl)-6,8-dihydro-5H-imidazo[1,5-a]pyrazine-1-carboxamide]
EC50: 0.1 to 0.5 µM

COc1ccc([C@H](C)NC(=O)c2c3n(c(=O)n2-c2ccc(OC4CC4)cc2)CCN(C(=O)c2ccc(Br)c(Cl)c2)C3)cc1 [Example 443, 7-(4-bromo-3-chloro-benozyl)-2-[4-(cyclopropoxy)phenyl]-N-[(1S)-1-(4-methoxyphenyl)ethyl]-3-oxo-6,8-dihydro-5H-imidazo[1,5-a]pyrazine-1-carboxamide]
EC50: 0.1 to 0.5 µM

N#Cc1cc(C(=O)N2CCn3c(c(C(=O)NCc4ccccc4-c4cccnn4)n(-c4ccc(OC5CC5)cc4)c3=O)C2)ccc1Br [Example 445, 7-(4-bromo-3-cyano-benzoyl)-2-[4-(cyclopropoxy)phenyl]-3-oxo-N-[(2-pyridazin-3-ylphenyl)methyl]-6,8-dihydro-5H-imidazo[1,5-a]yprazine-1-carboxamide]
EC50: 0.1 to 0.5 µM

O=C(NCc1ccccc1)c1c2n(c(=O)n1-c1ccc(OC3CC3)cc1)CCN(C(=O)c1cc(Cl)c(Br)cc1F)C2 [Example 446, N-benzyl-7-(4-bromo-5-chloro-2-fluoro-benzoyl)-2-[4-(cyclopropoxy)phenyl]-3-oxo-6,8-dihydro-5H-imidazo[1,5-a]pyrazine-1-carboxamide]
EC50: > 5 µM

COc1ccc([C@@H](C)NC(=O)c2c3n(c(=O)n2-c2ccc(OC4CC4)cc2)CCN(C(=O)c2ccc(Br)c(Cl)c2)C3)cc1 [Example 453, 7-(4-bromo-3-chloro-benzoyl)-2-[4-(cyclopropoxy)phenyl]-N-[(1R)-1-(4-methoxyphenyl)ethyl]-3-oxo-6,8-dihydro-5H-imidazo[1,5-a]pyrazine-1-carboxamide]
EC50: 0.1 to 0.5 µM

COc1ccc([C@@H](C)NC(=O)c2c3n(c(=O)n2-c2ccc(-n4cccn4)cc2)CCN(C(=O)c2ccc(Br)c(Cl)c2)C3)cc1 [Example 454, 7-(4-bromo-3-chloro-benzoyl)-N-[(1R)-1-(4-methoxyphenyl)ethyl]-3-oxo-2-(4-pyrazol-1-ylphenyl)-6,8-dihydro-5H-imidazo[1,5-a]pyrazine-1-carboxamide]
EC50: 0.1 to 0.5 µM

Cc1ccn(-c2ccc(-n3c(C(=O)NCc4ccccc4)c4n(c3=O)CCN(C(=O)c3ccc(Br)c(Cl)c3)C4)cc2)n1 [Example 455, N-benzyl-7-(4-bromo-3-chloro-benzoyl)-2-[4-(3-methylpyrazol-1-yl)phenyl]-3-oxo-6,8-dihydro-5H-imidazo[1,5-a]pyrazine-1-carboxamide]
EC50: 0.1 to 0.5 µM

Cc1ccnn1-c1ccc(-n2c(C(=O)NCc3ccccc3)c3n(c2=O)CCN(C(=O)c2ccc(Br)c(Cl)c2)C3)cc1 [Example 456, N-benzyl-7-(4-bromo-3-chloro-benzoyl)-2-[4-(5-methylpyrazol-1-yl)phenyl]-3-oxo-6,8-dihydro-5H-imidazo[1,5-a]pyrazine-1-carboxamide]
EC50: 0.5 to 5 µM

O=C(NCc1ccccc1-n1cccn1)c1c2n(c(=O)n1-c1ccc(OC3CC3)cc1)CCN(C(=O)c1ccc(Br)c(Cl)c1)C2 [Example 457, 7-(4-bromo-3-chloro-benzoyl)-2-[4-(cyclopropoxy)phenyl]-3-oxo-N-[(2-pyrazol-1-ylphenyl)methyl]-6,8-dihydro-5H-imidazo[1,5-a]pyrazine-1-carboxamide]
EC50: < 0.1 µM

O=C(NCc1c(F)ccc2nccnc12)c1c2n(c(=O)n1-c1ccc(-n3cccn3)cc1)CCN(C(=O)c1ccc(Br)c(Cl)c1)C2 [Example 458, 7-(4-bromo-3-chloro-benzoyl)-N-[(6-fluoroquinoxalin-5-yl)methyl]-3-oxo-2-(4-pyrazol-1-ylphenyl)-6,8-dihydro-5H-imidazo[1,5-a]pyrazine-1-carboxamide]
EC50: 0.1 to 0.5 µM

COc1ccc(CNC(=O)c2c3n(c(=O)n2-c2ccc(-n4cccn4)cc2)CCN(C(=O)c2ccc(Br)c(Cl)c2)C3)c(F)c1 [Example 459, 7-(4-bromo-3-chloro-benzoyl)-N-[(2-fluoro-4-methoxy-phenyl)methyl]-3-oxo-2-(4-pyrazol-1-ylphenyl)-6,8-dihydro-5H-imidazo[1,5-a]pyrazine-1-carboxamide]
EC50: 0.1 to 0.5 µM

COc1ccc(CNC(=O)c2c3n(c(=O)n2-c2ccc(OC4CC4)cc2)CCN(C(=O)c2ccc(Br)c(Cl)c2)C3)c(F)c1 [Example 460, 7-(4-bromo-3-chloro-benzoyl)-2-[4-(cyclopropoxy)phenyl]-N-[(2-fluoro-4-methoxy-phenyl)methyl]-3-oxo-6,8-dihydro-5H-imidazo[1,5-a]pyrazine-1-carboxamide]
EC50: 0.1 to 0.5 µM

O=C(NCc1c(F)ccc2nccnc12)c1c2n(c(=O)n1-c1ccc(OC3CC3)cc1)CCN(C(=O)c1ccc(Br)c(Cl)c1)C2 [Example 461, 7-(4-bromo-3-chloro-benozyl)-2-[4-(cyclopropoxy)phenyl]-N-[(6-fluoroquinoxalin-5-yl)methyl]-3-oxo-6,8-dihydro-5H-imidazo[1,5-a]pyrazine-1-carboxamide]
EC50: < 0.1 µM

Cc1c(C(=O)N2CCn3c(c(C(=O)NCc4ccccc4)n(-c4ccc(OC5CC5)cc4)c3=O)C2)ccc(Br)c1Cl [Example 462, N-benzyl-7-(4-bromo-3-chloro-2-methyl-benzoyl)-2-[4-(cyclopropoxy)phenyl]-3-oxo-6,8-dihydro-5H-imidazo[1,5-a]pyrazine-1-carboxamide]
EC50: 0.5 to 5 µM
